# PubChem BioAssay (NCI)
#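 Method: 48-hour compound exposure of cells in 96-well plates, five concentrations, linear interpolation of endpoints. GI50: concentration for 50% inhibition of growth. TGI marks complete inhibition of growth.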
# Legend:
# Assay in all cases: NCI anticancer screen, dose series, 48 h
# [1] = test system: RPMI-8226 leukemia
# [2] = test system: LOX IMVI melanoma
# [3] = test system: HOP-62 NSCLC
# [4] = test system: MDA-MB-435
# [5] = test system: MALME-3M melanoma
# [6] = test system: UO-31 renal
# [7] = test system: BT-549 breast
# [8] = test system: HL-60(TB) leukemia
# [9] = test system: UACC-257 melanoma
# [10] = test system: NCI-H522 lung
# [11] = test system: NCI-H226 lung
# [12] = test system: OVCAR-5 ovarian
# [13] = test system: A549 NSCLC
# [14] = test system: CCRF-CEM leukemia
# [15] = test system: COLO 205 colon
# [16] = test system: OVCAR-4 ovarian
# [17] = test system: HCC-2998 colon
# [18] = test system: K-562 leukemia
# [19] = test system: MOLT-4 leukemia
# [20] = test system: 786-0 renal
# [21] = test system: SW-620 colon
# [22] = test system: IGROV1 ovarian
# [23] = test system: DU-145 prostate
# [24] = test system: SK-MEL-2 melanoma
# [25] = test system: NCI/ADR-RES ovarian
# [26] = test system: CAKI-1 renal
# [27] = test system: HCT-116 colon
# [28] = test system: NCI-H23 lung
# [29] = test system: SK-MEL-5 melanoma
# [30] = test system: SK-MEL-28 melanoma
# [31] = test system: T-47D breast
# [32] = test system: HOP-92 NSCLC
# [33] = test system: M14 melanoma
# [34] = test system: OVCAR-8 ovarian
# [35] = test system: MDA-MB-231 breast
# [36] = test system: PC-3 prostate
# [37] = test system: OVCAR-3 ovarian
# [38] = test system: NCI-H460 lung
# [39] = test system: HT29 colon
# [40] = test system: HS 578T breast
# [41] = test system: ACHN renal
# [42] = test system: SF-268 CNS
# [43] = test system: A498 renal
# [44] = test system: MCF7 breast
# [45] = test system: SNB-19 CNS
# [46] = test system: SF-295 CNS
# [47] = test system: HCT-15 colon
# [48] = test system: U251 CNS
# [49] = test system: TK-10 renal
# [50] = test system: SNB-75 CNS
# [51] = test system: SK-OV-3 ovarian
# [52] = test system: UACC-62 melanoma
# [53] = test system: KM12 colon
# [54] = test system: EKVX NSCLC
# [55] = test system: SN12C renal
# [56] = test system: RXF 393 renal
# [57] = test system: SF-539 CNS
smiles,measurement,setting,value
O=C(Nc1ccccc1)Nc1ccc(Cl)c(Cl)c1,GI50,[1],2.83 µM
same,TGI,[1],9.83 µM
same,GI50,[2],2.51 µM
same,TGI,[2],16.3 µM
same,GI50,[3],5.84 µM
same,TGI,[3],> 100 µM
same,GI50,[4],3.26 µM
same,TGI,[4],33.9 µM
same,GI50,[5],2.86 µM
same,TGI,[5],21.4 µM
same,GI50,[6],2.62 µM
same,TGI,[6],21.9 µM
same,GI50,[7],4.99 µM
same,TGI,[7],85.9 µM
same,GI50,[8],3.98 µM
same,TGI,[8],26.9 µM
same,GI50,[9],3.73 µM
same,TGI,[9],32.9 µM
same,GI50,[10],1.69 µM
same,TGI,[10],7.67 µM
same,GI50,[11],3.06 µM
same,TGI,[11],> 100 µM
same,GI50,[12],8.85 µM
same,TGI,[12],> 100 µM
same,GI50,[13],3.04 µM
same,TGI,[13],> 100 µM
same,GI50,[14],4.87 µM
same,TGI,[14],> 100 µM
same,GI50,[15],3.04 µM
same,TGI,[15],11.1 µM
same,GI50,[16],3.34 µM
same,TGI,[16],71.5 µM
same,GI50,[17],4.03 µM
same,TGI,[17],> 100 µM
same,GI50,[18],3.79 µM
same,TGI,[18],> 100 µM
same,GI50,[19],3.58 µM
same,TGI,[19],86.8 µM
same,GI50,[20],3.7 µM
same,TGI,[20],> 100 µM
same,GI50,[21],3.58 µM
same,TGI,[21],> 100 µM
same,GI50,[22],3.63 µM
same,TGI,[22],> 100 µM
same,GI50,[23],3.69 µM
same,TGI,[23],> 100 µM
same,GI50,[24],2.32 µM
same,TGI,[24],9.97 µM
same,GI50,[25],3.05 µM
same,TGI,[25],83.8 µM
same,GI50,[26],2.71 µM
same,TGI,[26],24.7 µM
same,GI50,[27],3.03 µM
same,TGI,[27],> 100 µM
same,GI50,[28],2.58 µM
same,TGI,[28],> 100 µM
same,GI50,[29],3.61 µM
same,TGI,[29],14.4 µM
same,GI50,[30],4.55 µM
same,TGI,[30],> 100 µM
same,GI50,[31],2.57 µM
same,TGI,[31],> 100 µM
same,GI50,[32],1.52 µM
same,TGI,[32],6.12 µM
same,GI50,[33],4.64 µM
same,TGI,[33],> 100 µM
same,GI50,[34],3.2 µM
same,TGI,[34],79.3 µM
same,GI50,[35],3.9 µM
same,TGI,[35],25.4 µM
same,GI50,[36],2.41 µM
same,TGI,[36],9.72 µM
same,GI50,[37],2.44 µM
same,TGI,[37],8.76 µM
same,GI50,[38],3.06 µM
same,TGI,[38],> 100 µM
same,GI50,[39],2.85 µM
same,TGI,[39],20.2 µM
same,GI50,[40],2.9 µM
same,TGI,[40],29 µM
same,GI50,[41],3.59 µM
same,TGI,[41],97.1 µM
same,GI50,[42],4.76 µM
same,TGI,[42],> 100 µM
same,GI50,[43],5.04 µM
same,TGI,[43],68.5 µM
same,GI50,[44],3.14 µM
same,TGI,[44],73.3 µM
same,GI50,[45],3.1 µM
same,TGI,[45],> 100 µM
same,GI50,[46],2.89 µM
same,TGI,[46],21.5 µM
same,GI50,[47],3.22 µM
same,TGI,[47],> 100 µM
same,GI50,[48],3.23 µM
same,TGI,[48],20.8 µM
same,GI50,[49],3.83 µM
same,TGI,[49],36.2 µM
same,GI50,[50],5.35 µM
same,TGI,[50],> 100 µM
same,GI50,[51],5.52 µM
same,TGI,[51],> 100 µM
same,GI50,[52],2.66 µM
same,TGI,[52],> 100 µM
same,GI50,[53],2.64 µM
same,TGI,[53],20.5 µM
same,GI50,[54],2.93 µM
same,TGI,[54],> 100 µM
same,GI50,[55],3 µM
same,TGI,[55],> 100 µM
same,GI50,[56],6.31 µM
same,TGI,[56],33.8 µM
Cc1cc(N)cc(C)c1-c1c(Br)cc(N)cc1Br,GI50,[1],3.04 µM
same,TGI,[1],10.4 µM
same,GI50,[2],6.14 µM
same,TGI,[2],20.7 µM
same,GI50,[4],1.78 µM
same,TGI,[4],11.2 µM
same,GI50,[5],10.5 µM
same,TGI,[5],54.3 µM
same,GI50,[6],9.11 µM
same,TGI,[6],46 µM
same,GI50,[7],7.51 µM
same,TGI,[7],30.4 µM
same,GI50,[9],14.3 µM
same,TGI,[9],51.8 µM
same,GI50,[10],2.19 µM
same,TGI,[10],7.88 µM
same,GI50,[11],9.43 µM
same,TGI,[11],> 100 µM
same,GI50,[12],4.84 µM
same,TGI,[12],> 100 µM
same,GI50,[13],4.71 µM
same,TGI,[13],56.5 µM
same,GI50,[15],2.39 µM
same,TGI,[15],4.88 µM
same,GI50,[16],5.93 µM
same,TGI,[16],> 100 µM
same,GI50,[17],3.42 µM
same,TGI,[17],16.6 µM
same,GI50,[20],5.53 µM
same,TGI,[20],18.7 µM
same,GI50,[21],3.68 µM
same,TGI,[21],> 100 µM
same,GI50,[22],4.32 µM
same,TGI,[22],> 100 µM
same,GI50,[23],2.89 µM
same,TGI,[23],9.13 µM
same,GI50,[24],4.14 µM
same,TGI,[24],21.1 µM
same,GI50,[25],2.23 µM
same,TGI,[25],5.57 µM
same,GI50,[26],3.07 µM
same,TGI,[26],31.2 µM
same,GI50,[27],3.68 µM
same,TGI,[27],13.1 µM
same,GI50,[28],3.52 µM
same,TGI,[28],19 µM
same,GI50,[29],4.52 µM
same,TGI,[29],16.1 µM
same,GI50,[30],5.21 µM
same,TGI,[30],33.7 µM
same,GI50,[31],4.11 µM
same,TGI,[31],20.3 µM
same,GI50,[32],2.01 µM
same,TGI,[32],9.32 µM
same,GI50,[33],2.65 µM
same,TGI,[33],8.76 µM
same,GI50,[34],4.41 µM
same,TGI,[34],28.6 µM
same,GI50,[35],4.1 µM
same,TGI,[35],26.3 µM
same,GI50,[36],4.17 µM
same,TGI,[36],69.1 µM
same,GI50,[57],2.89 µM
same,TGI,[57],11.1 µM
same,GI50,[37],2.63 µM
same,TGI,[37],6.3 µM
same,GI50,[38],3.31 µM
same,TGI,[38],11.2 µM
same,GI50,[39],2.82 µM
same,TGI,[39],12 µM
same,GI50,[41],10.6 µM
same,TGI,[41],98.4 µM
same,GI50,[42],6.36 µM
same,TGI,[42],68.5 µM
same,GI50,[43],1.82 µM
same,TGI,[43],7.54 µM
same,GI50,[44],4.54 µM
same,TGI,[44],> 100 µM
same,GI50,[45],5.3 µM
same,TGI,[45],> 100 µM
same,GI50,[46],2.76 µM
same,TGI,[46],12.1 µM
same,GI50,[47],4.77 µM
same,TGI,[47],> 100 µM
same,GI50,[48],4.54 µM
same,TGI,[48],17.9 µM
same,GI50,[49],5.67 µM
same,TGI,[49],37.7 µM
same,GI50,[50],2.29 µM
same,TGI,[50],16.2 µM
same,GI50,[51],3.62 µM
same,TGI,[51],12.2 µM
same,GI50,[52],3.52 µM
same,TGI,[52],24 µM
same,GI50,[53],3.75 µM
same,TGI,[53],17.3 µM
same,GI50,[54],5.65 µM
same,TGI,[54],> 100 µM
same,GI50,[55],6.05 µM
same,TGI,[55],73.2 µM
same,GI50,[56],2.57 µM
same,TGI,[56],6.91 µM
